Test results from article PMC9710854 (Chemical communications (Cambridge, England), 2022).

Key:
[1] = test system: MM.1S cells; experiment: Cell viability of MM.1S cells after 24 h treatment; type: cell-based
[2] = Plasma protein binding estimated by an HPLC-based method; type: in vitro ADME
[3] = Experimental partition coefficient; type: physicochemical
[4] = target: USP7 catalytic domain (Homo sapiens, UniProt Q93009); experiment: USP7 inhibition with isolated USP7 catalytic domain using Ub-AMC as a substrate; type: biochemical
Chain of USP7 catalytic domain (Q93009 214-521 limits assumed): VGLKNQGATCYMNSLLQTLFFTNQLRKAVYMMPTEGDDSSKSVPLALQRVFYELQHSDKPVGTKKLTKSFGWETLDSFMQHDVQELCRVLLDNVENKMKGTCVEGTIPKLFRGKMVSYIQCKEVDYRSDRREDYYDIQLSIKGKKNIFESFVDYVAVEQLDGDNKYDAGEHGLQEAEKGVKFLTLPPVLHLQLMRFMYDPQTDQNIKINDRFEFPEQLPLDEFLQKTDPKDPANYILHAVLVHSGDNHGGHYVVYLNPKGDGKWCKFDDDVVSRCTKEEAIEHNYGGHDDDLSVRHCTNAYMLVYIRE

SMILES | viability at 10 µM ([1]; Homo sapiens, MM1.S, read-out: cell viability) [%] | fraction unbound ([2]; plasma) | logD [3] | IC50 [4] [nM] | cell viability ([1]; remaining viability, MM.1S cells, 10 μM) [%] | PPB ([2]; plasma protein binding, estimated by an HPLC-based method) [%]
O=C(C[C@@H](C(F)F)n1ccc(F)n1)N1CCC(O)(Cn2cnc3c(cnn3-c3ccc(F)cc3)c2=O)CC1 [Compound 2, FT671] | 41 | 0.1 | 2.5 | 32 ± 7 | – | –
C[C@H](CC(=O)N1CCC(O)(Cn2cnc3cc(NC(=O)CCN4CCN(C)CC4)ccc3c2=O)CC1)c1ccccc1 [Compound 3, XL188] | – | – | 1.3 | – | 43 | 87
